Source: the supplement of paper PMC8253809

How the values were obtained:
DIPGX9 [1] = diffuse intrinsic pontine glioma line; experiment: maximal growth inhibition (yFin) relative to DMSO / staurosporine; higher = more efficacious
Outline: (§1)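 Patient-derived pHGG/DIPG cell lines and astrocyte controls were plated in 384-well plates coated with 1% Geltrex and dosed by pin tool with a 10-point threefold dilution series (mean top concentration 35 μM), in triplicate. Cells were exposed for 7 days (3 days for iAstro) at 37 °C and 5% CO2. CellTiter-Glo luminescence was log2-transformed, normalised per plate to % activity between negative (solvent) and positive control wells, and pooled. EC50 and maximal response (yFin) were taken from whichever three- or four-parameter log-logistic fit had the lowest AICc.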

SUDIPGXXI [2] = diffuse intrinsic pontine glioma line; experiment: as above
Outline: as §1

HGGX2 [3] = paediatric high-grade glioma line; experiment: as above
Outline: as §1

SUDIPGXIII [4] = diffuse intrinsic pontine glioma line; experiment: as above
Outline: as §1

SUDIPGIV [5] = diffuse intrinsic pontine glioma line; experiment: as above
Outline: as §1

SUDIPGXVII [6] = diffuse intrinsic pontine glioma line; experiment: as above
Outline: as §1

HGGX39 [7] = paediatric high-grade glioma line; experiment: as above
Outline: as §1

HGGX42 [8] = H3.3 G34R paediatric high-grade glioma line; experiment: as above
Outline: as §1

HGGX6 [9] = H3.3 G34R paediatric high-grade glioma line; experiment: as above
Outline: as §1

SUDIPGXIX [10] = diffuse intrinsic pontine glioma line; experiment: as above
Outline: as §1

SUDIPGVI = diffuse intrinsic pontine glioma line; experiment: as above
Outline: as §1

DIPGX7 [11] = H3.3 K27M diffuse intrinsic pontine glioma line; experiment: as above
Outline: as §1

DIPGX29 [12] = H3.3 K27M diffuse intrinsic pontine glioma line; experiment: as above
Outline: as §1

HABS [13] = astrocyte control; experiment: as above
Outline: as §1

DIPGX37 [14] = H3.3 K27M diffuse intrinsic pontine glioma line; experiment: as above
Outline: as §1

iAstro = astrocyte control; experiment: as above
Outline: as §1

DIPGX9 [15] = experiment: area under dose-response curve of % growth inhibition (log2 RLU vs DMSO / staurosporine), 1e-11 to 1e-4 M (% x log10 M); higher = more growth inhibition
Outline: (§2)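 Patient-derived pHGG/DIPG cell lines and astrocyte controls were grown on 1% Geltrex-coated 384-well plates and exposed to a 10-point threefold dilution series (mean top concentration 35 μM), in triplicate. Exposure was 7 days (iAstro 3 days) at 37 °C, 5% CO2. CellTiter-Glo luminescence was log2-transformed and normalised per plate to % activity between solvent and positive controls. Area under the curve was taken by trapezoid rule from the fitted log-logistic curve, or from a smoothing spline when the sigmoid fit failed.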

SUDIPGXXI [16] = experiment: as above
Outline: as §2

HGGX2 [17] = experiment: as above
Outline: as §2

SUDIPGXIII [18] = experiment: as above
Outline: as §2

SUDIPGIV [19] = experiment: as above
Outline: as §2

SUDIPGXVII [20] = experiment: as above
Outline: as §2

HGGX39 [21] = experiment: as above
Outline: as §2

HGGX42 [22] = experiment: as above
Outline: as §2

HGGX6 [23] = experiment: as above
Outline: as §2

SUDIPGXIX [24] = experiment: as above
Outline: as §2

DIPGX7 [25] = experiment: as above
Outline: as §2

DIPGX29 [26] = experiment: as above
Outline: as §2

HABS [27] = experiment: as above
Outline: as §2

DIPGX37 [28] = experiment: as above
Outline: as §2

Structure (SMILES) | maximal growth inhibition (DIPGX9 [1]) | maximal growth inhibition (SUDIPGXXI [2]) | maximal growth inhibition (HGGX2 [3]) | maximal growth inhibition (SUDIPGXIII [4]) | maximal growth inhibition (SUDIPGIV [5]) | maximal growth inhibition (SUDIPGXVII [6]) | maximal growth inhibition (HGGX39 [7]) | maximal growth inhibition (HGGX42 [8]) | maximal growth inhibition (HGGX6 [9]) | maximal growth inhibition (SUDIPGXIX [10]) | maximal growth inhibition (SUDIPGVI) | maximal growth inhibition (DIPGX7 [11]) | maximal growth inhibition (DIPGX29 [12]) | maximal growth inhibition (HABS [13]) | maximal growth inhibition (DIPGX37 [14]) | maximal growth inhibition (iAstro) | area under dose-response curve (DIPGX9 [15]) | area under dose-response curve (SUDIPGXXI [16]) | area under dose-response curve (HGGX2 [17]) | area under dose-response curve (SUDIPGXIII [18]) | area under dose-response curve (SUDIPGIV [19]) | area under dose-response curve (SUDIPGXVII [20]) | area under dose-response curve (HGGX39 [21]) | area under dose-response curve (HGGX42 [22]) | area under dose-response curve (HGGX6 [23]) | area under dose-response curve (SUDIPGXIX [24]) | area under dose-response curve (DIPGX7 [25]) | area under dose-response curve (DIPGX29 [26]) | area under dose-response curve (HABS [27]) | area under dose-response curve (DIPGX37 [28])
COc1cccc2c1C(=O)c1c(O)c3c(c(O)c1C2=O)C[C@@](O)(C(=O)CO)C[C@@H]3O[C@H]1C[C@H](N)[C@H](O)[C@H](C)O1 [DOXORUBICIN] | 99.9% | 95.8% | 61.1% | 87.7% | 97.8% | 95.8% | 101% | 96.5% | 86.1% | 97.2% | 89.1% | 103% | 102% | 69.6% | 86.8% | 26.4% | 293 | 420 | 168 | 170 | 255 | 195 | 174 | 260 | 147 | 294 | 213 | 169 | 210 | 210
CCCCc1oc2ccc(NS(C)(=O)=O)cc2c1C(=O)c1ccc(OCCCN(CCCC)CCCC)cc1 [DRONEDARONE] | 123% | 127% | 116% | 117% | 122% | 122% | 106% | 119% | 93.4% | 123% | 121% | 120% | 104% | 119% | 99.7% | 104% | 128 | 225 | 136 | 105 | 149 | 119 | 108 | 165 | 106 | 137 | 194 | 148 | 91.3 | 138
CCOC(=O)CCNc1cc(N2CCc3ccccc3CC2)nc(-c2ccccn2)n1 [GSK-J4] | 94.2% | 112% | 100% | 48.1% | 61.5% | 55.2% | 63.1% | 100% | 62.6% | 98.3% | 44.1% | 46.7% | 69.6% | 72.9% | 56.1% | 69.4% | 103 | 213 | 100 | 61.1 | 62 | 54.8 | 62.2 | 87.1 | 63.1 | 104 | 46.8 | 80.7 | 71.4 | 67.7
O=C(c1ccc(Nc2nccc(-c3cc4ccccc4s3)n2)cc1)N1CCC(N2CCCC2)CC1 [IKK 16] | 122% | 120% | 104% | 114% | 115% | 118% | 119% | 107% | 106% | 128% | 104% | 108% | 117% | 124% | 120% | 94.4% | 105 | 165 | 146 | 107 | 132 | 108 | 137 | 187 | 88.2 | 127 | 155 | 180 | 93.1 | 183
CC(C)C[C@H](NC(=O)CNC(=O)c1cc(Cl)ccc1Cl)B(O)O [IXAZOMIB] | 82.6% | 86.4% | 86% | 77.3% | 89.4% | 81% | 84.7% | 70.6% | 79.4% | 88.1% | 73.9% | 81.4% | 77.5% | 84.1% | 79.9% | 67.4% | 304 | 337 | 242 | 266 | 322 | 247 | 302 | 234 | 260 | 327 | 302 | 210 | 288 | 315
Cc1c(C2CCN(CCc3ccccc3)CC2)noc1-c1ccc(Cl)cc1 [L-741,742] | 22.2% | 106% | 42.8% | 22.9% | 77.7% | 34.3% | 84% | 74.2% | 69.7% | 27.2% | 44.4% | 104% | 82.8% | 31.3% | 101% | 43.2% | 30.3 | 145 | 35.6 | 21.9 | 91.7 | 40.3 | 96.9 | 90.7 | 83.5 | 22.6 | 118 | 100 | 25.7 | 93.6
